Data reported in patent publication US4278797A, “Intermediates to phenylmorphans and method of preparation thereof” (priority 1980, dated 1981).
Read-outs that look alike come from different tables or passages of the source.

Legend:
Mouse writhing = experiment: mouse writhing test (intraperitoneal acetic acid); format: in vivo, mice; details: dose reducing writhing by fifty percent; for ED50: Mus musculus
Text: In another test designed to show analgesic activity, mice are given an intraperitaneal injection of acetic acid which causes the animals to writh. An effective analgesic is one that reduces the writhings. Column 3 of the following table presents the effective sucutaneous and oral doses in mg/kg of a compound of this invention required to reduce the writing in test animals by fifty percent (ED50).

Rat tail jerk = experiment: rat-tail jerk assay (light beam or heat source applied to the tail); format: in vivo; details: dose causing a two second delay in tail removal compared to control animals receiving no drug; for ED (2 s delay): Rattus norvegicus, sc, subcutaneous, read-out: Rat tail jerk subcutaneous injection ED2 seconds
Method: The phenylmorphan derivatives provided by this invention are useful as analgesics in the treatment of pain in animals suffering from pain and in need of treatment. […] One such test is the rat-tail jerk assay. In this test, a light beam or heat source is applied to the tail of a rat. The pain threshold of the animal is measured by the latency of the rat to remove its tail from the pain source. Column 2 in the following table presents the effective subcutaneous dose in mg/kg of a number of the compounds of this invention which causes a two second delay (ED2 sec) in tail removal compared to the control animals receiving no drug.

[1] = compared with morphine or with 5-(3-hydroxyphenyl)-2-methylmorphan; literature; cited from earlier work
[2] = literature; cited from earlier work
[3] = sc, subcutaneous, read-out: Mouse writhing s.c. ED50
[4] = oral, read-out: Mouse writhing oral ED50

Structure (SMILES)	ED50 (Mouse writhing; [3]) [mg/kg]	ED50 (Mouse writhing; [4]) [mg/kg]	ED (2 s delay) (Rat tail jerk) [mg/kg]	further results
COc1cccc(C23CCN(C)C(CC(C)C2)C3)c1 (stereo not drawn) [2,7-dimethyl-5-(3-methoxyphenyl)morphan, 2,7-Dimethyl-5-(3-methoxyphenyl)morphan]	3.5	28.5	10	–
COc1cccc(C23CC(C)CC(C2)N(C)C(C)C3)c1 (stereo not drawn) [2,3,7-Trimethyl-5-(3-methoxyphenyl)morphan]	7.8	22	20	–
CC1CC2CC(c3cccc(O)c3)(CCN2C)C1 (stereo not drawn) [2,7-dimethyl-5-(3-hydroxyphenyl)morphan, 2,7-Dimethyl-5-(3-hydroxyphenyl)morphan]	0.72	28.5	0.5	–
CN1CCC2(c3cccc(O)c3)CCCC1C2 (racemic) [racemic 5-(3-hydroxyphenyl)-2-methylmorphan, 5-(3-hydroxyphenyl)-2-methylmorphan]	–	–	–	analgesic potency [1]: nearly equivalent to that of morphine
CN1CCC2(c3cccc(O)c3)CCCC1C2 (stereo not drawn) [2-methyl-5-(3-hydroxyphenyl)-morphan, 2-Methyl-5-(3-hydroxyphenyl)morphan]	1.3	29	1	–
CC1CC2(c3cccc(O)c3)CCCC(C2)N1C (stereo not drawn) [2,3-dimethyl-5-(3-hydroxyphenyl)morphan, 2,3-Dimethyl-5-(3-hydroxyphenyl)morphan]	2	23	2	–
COc1cccc(C23CCCC(C2)N(C)CC3)c1 (stereo not drawn) [2-methyl-5-(3-methoxyphenyl)-morphan, 2-Methyl-5-(3-methoxyphenyl)morphan]	9.6	27.5	10	–
CN1CCC2(c3cccc(O)c3)CCCC1C2 (single isomer, unassigned; (-)) [(-)-isomer of 5-(3-hydroxyphenyl)-2-methylmorphan, (-)-5-(3-hydroxyphenyl)-2-methylmorphan]	–	–	–	physical dependence capacity [2]: no physical dependence capacity; analgesic potency [1]: morphine-like potency
COc1cccc(C23CCCC(C2)N(C)C(C)C3)c1 (stereo not drawn) [2,3-dimethyl-5-(3-methoxyphenyl)morphan, 2,3-Dimethyl-5-(3-methoxyphenyl)morphan]	–	–	–	Mouse writhing oral ED50 (Mouse writhing; oral): 17.0 mg/kg; Mouse writhing s.c. ED50 (Mouse writhing; subcutaneous): 13.0 mg/kg; Rat tail jerk subcutaneous injection ED2 seconds (Rat tail jerk): 15.0 mg/kg
CC1CC2CC(c3cccc(O)c3)(C1)CC(C)N2C (stereo not drawn) [2,3,7-Trimethyl-5-(3-hydroxyphenyl)morphan]	0.66	14	0.5	–
